Measurements taken from the OligoGym collection.
HELM strings list units from the 5' end as sugar, base in round brackets, then linkage (d deoxyribose, r ribose, m 2'-O-methyl, p phosphodiester). Strings are as the collection lists them; they lack the last nucleoside at the 3' end of the tested compound. [moe] = 2'-O-(2-methoxyethyl) (MOE); [sp] = phosphorothioate linkage; [m5C] = 5-methylcytosine

Molecular target: ATXN3
Experiment: mouse, dose not given
Details: ASO

**Q.** “RNA1{[moe](T)[sp].[moe](G)p.[moe](G)p.[moe]([m5C])p.[moe](A)p.[moe]([m5C])p.d(A)[sp].d(T)[sp].d(T)[sp].d(T)[sp].d(T)[sp].d(T)[sp].d(T)[sp].d(A)[sp].d(T)[sp].d(A)[sp].[moe](G)p.[moe](A)[sp].[moe](G)}$$$$ (last 3' nucleoside missing)” was tested. Which 3 h FOB score did it give?
**A.** 2.75 score 0-7

**Q.** With “RNA1{[moe](G)[sp].[moe]([m5C])[sp].[moe](T)p.[moe]([m5C])p.[moe](A)[sp].d(T)[sp].d(T)[sp].d(T)[sp].d(A)[sp].d(T)[sp].d(T)[sp].d([m5C])[sp].d(T)[sp].d([m5C])[sp].d(A)[sp].[moe](A)p.[moe](G)p.[moe](T)[sp].[moe](A)}$$$$ (last 3' nucleoside missing)” as the substance, how does the 3 h FOB score read?
**A.** 1 score 0-7

**Q.** How did the 3 h FOB score turn out when “RNA1{[moe]([m5C])[sp].[moe](A)p.[moe](A)p.[moe](T)p.[moe](A)p.d(T)[sp].d(T)[sp].d(T)[sp].d(A)[sp].d(T)[sp].d(A)[sp].d(G)[sp].d(G)[sp].d(T)[sp].d(G)[sp].[moe]([m5C])p.[moe](T)p.[moe](G)[sp].[moe]([m5C])}$$$$ (last 3' nucleoside missing)” was run?
**A.** 4 score 0-7

**Q.** “RNA1{[moe](T)[sp].[moe](G)p.[moe](A)[sp].[moe](G)[sp].[moe]([m5C])[sp].d([m5C])[sp].d(A)[sp].d(A)[sp].d(T)[sp].d(A)[sp].d(T)[sp].d(T)[sp].d(T)[sp].d(A)[sp].d(T)[sp].[moe](A)[sp].[moe](G)p.[moe](G)[sp].[moe](T)}$$$$ (last 3' nucleoside missing)” was tested. Which 3 h FOB score did it give?
**A.** 4 score 0-7

**Q.** “RNA1{[moe](T)[sp].[moe](A)p.[moe](A)p.[moe](T)p.[moe](A)[sp].d([m5C])[sp].d(U)[sp].d(T)[sp].d(T)[sp].d(T)[sp].d(T)[sp].d([m5C])[sp].d([m5C])[sp].d(A)[sp].d(G)[sp].[moe]([m5C])p.[moe]([m5C])p.[moe](T)[sp].[moe](T)}$$$$ (last 3' nucleoside missing)” was tested. Which 3 h FOB score did it give?
**A.** 1 score 0-7

**Q.** Which 3 h FOB score does the source give for “RNA1{[moe](A)[sp].[moe](T)p.[moe](G)p.[moe]([m5C])p.[moe](T)[sp].d([m5C])[sp].d(A)[sp].d(T)[sp].d(T)[sp].d(T)[sp].d(A)[sp].d(T)[sp].d(T)[sp].d([m5C])[sp].d(T)[sp].[moe]([m5C])p.[moe](A)p.[moe](A)[sp].[moe](G)}$$$$ (last 3' nucleoside missing)” here?
**A.** 0 score 0-7

**Q.** Which 3 h FOB score does the source give for “RNA1{[moe](G)[sp].[moe](T)p.[moe](G)p.[moe]([m5C])p.[moe](T)[sp].d(T)[sp].d(T)[sp].d(T)[sp].d([m5C])[sp].d(A)[sp].d(T)[sp].d(A)[sp].d([m5C])[sp].d([m5C])[sp].d(A)[sp].[moe](G)p.[moe](G)p.[moe](T)[sp].[moe]([m5C])}$$$$ (last 3' nucleoside missing)” here?
**A.** 1 score 0-7

**Q.** Which 3 h FOB score does the source give for “RNA1{[moe](G)[sp].[moe]([m5C])p.[moe](A)p.[moe]([m5C])p.[moe](A)p.[moe](T)p.d(T)[sp].d(T)[sp].d(T)[sp].d(T)[sp].d(T)[sp].d(A)[sp].d(T)[sp].d(A)[sp].d(G)[sp].d(A)[sp].[moe](G)p.[moe](T)[sp].[moe](T)}$$$$ (last 3' nucleoside missing)” here?
**A.** 1 score 0-7

**Q.** With “RNA1{[moe](G)[sp].[moe]([m5C])p.[moe](A)p.[moe](T)p.[moe](A)p.[moe](T)p.d(T)[sp].d(G)[sp].d(G)[sp].d(T)[sp].d(T)[sp].d(T)[sp].d(T)[sp].d([m5C])[sp].d(T)[sp].d([m5C])[sp].[moe](A)p.[moe](T)[sp].[moe](T)}$$$$ (last 3' nucleoside missing)” as the substance, how does the 3 h FOB score read?
**A.** 3 score 0-7

**Q.** With “RNA1{[moe](A)[sp].[moe](T)p.[moe](G)[sp].[moe](T)[sp].[moe](T)[sp].d(A)[sp].d(A)[sp].d(T)[sp].d(A)[sp].d([m5C])[sp].d(T)[sp].d(T)[sp].d(T)[sp].d(T)[sp].d(T)[sp].[moe]([m5C])[sp].[moe]([m5C])p.[moe](A)[sp].[moe](G)}$$$$ (last 3' nucleoside missing)” as the substance, how does the 3 h FOB score read?
**A.** 0.25 score 0-7

**Q.** Which 3 h FOB score does the source give for “RNA1{[moe](G)[sp].[moe]([m5C])p.[moe](T)p.[moe]([m5C])p.[moe](A)p.d(T)[sp].d(T)[sp].d(T)[sp].d(A)[sp].d(T)[sp].d(T)[sp].d([m5C])[sp].d(T)[sp].d([m5C])[sp].d(A)[sp].[moe](A)p.[moe](G)p.[moe](T)[sp].[moe](A)}$$$$ (last 3' nucleoside missing)” here?
**A.** 1 score 0-7

**Q.** How did the 3 h FOB score turn out when “RNA1{[moe]([m5C])[sp].[moe](A)p.[moe]([m5C])p.[moe](A)p.[moe]([m5C])[sp].d(T)[sp].d(T)[sp].d(T)[sp].d([m5C])[sp].d([m5C])[sp].d(T)[sp].d([m5C])[sp].d([m5C])[sp].d(T)[sp].d([m5C])[sp].[moe](A)p.[moe](A)p.[moe](T)[sp].[moe]([m5C])}$$$$ (last 3' nucleoside missing)” was run?
**A.** 0 score 0-7

**Q.** How did the 3 h FOB score turn out when “RNA1{[moe](G)[sp].[moe]([m5C])p.[moe]([m5C])p.[moe](A)p.[moe](T)p.[moe](T)p.d(A)[sp].d(A)[sp].d(T)[sp].d([m5C])[sp].d(T)[sp].d(A)[sp].d(T)[sp].d(A)[sp].d([m5C])[sp].d(T)[sp].[moe](G)p.[moe](A)[sp].[moe](A)}$$$$ (last 3' nucleoside missing)” was run?
**A.** 0 score 0-7

**Q.** With “RNA1{[moe](A)[sp].[moe](T)p.[moe](G)p.[moe](A)p.[moe](G)[sp].d([m5C])[sp].d([m5C])[sp].d(A)[sp].d(A)[sp].d(T)[sp].d(A)[sp].d(T)[sp].d(T)[sp].d(T)[sp].d(A)[sp].[moe](T)p.[moe](A)p.[moe](G)[sp].[moe](G)}$$$$ (last 3' nucleoside missing)” as the substance, how does the 3 h FOB score read?
**A.** 1 score 0-7

**Q.** “RNA1{[moe](A)[sp].[moe](A)p.[moe](T)p.[moe](G)p.[moe]([m5C])p.d(A)[sp].d(T)[sp].d(A)[sp].d(T)[sp].d(T)[sp].d(G)[sp].d(G)[sp].d(T)[sp].d(T)[sp].d(T)[sp].[moe](T)p.[moe]([m5C])p.[moe](T)[sp].[moe]([m5C])}$$$$ (last 3' nucleoside missing)” was tested. Which 3 h FOB score did it give?
**A.** 4 score 0-7

**Q.** How did the 3 h FOB score turn out when “RNA1{[moe](T)[sp].[moe]([m5C])p.[moe](A)[sp].[moe]([m5C])[sp].[moe](A)[sp].d(A)[sp].d(T)[sp].d(G)[sp].d(A)[sp].d([m5C])[sp].d([m5C])[sp].d([m5C])[sp].d(T)[sp].d(T)[sp].d(T)[sp].[moe](T)[sp].[moe]([m5C])p.[moe](T)[sp].[moe](T)}$$$$ (last 3' nucleoside missing)” was run?
**A.** 1.25 score 0-7

**Q.** For “RNA1{[moe](T)[sp].[moe](G)p.[moe](G)p.[moe]([m5C])p.[moe](A)p.d([m5C])[sp].d(A)[sp].d(T)[sp].d(T)[sp].d(T)[sp].d(T)[sp].d(T)[sp].d(T)[sp].d(A)[sp].d(T)[sp].[moe](A)p.[moe](G)p.[moe](A)[sp].[moe](G)}$$$$ (last 3' nucleoside missing)”, which 3 h FOB score is on record?
**A.** 2.5 score 0-7

**Q.** For “RNA1{[moe](G)[sp].[moe](T)p.[moe](T)p.[moe]([m5C])p.[moe](A)p.[moe](T)p.d(A)[sp].d(T)[sp].d([m5C])[sp].d([m5C])[sp].d(T)[sp].d(T)[sp].d(T)[sp].d(A)[sp].d(A)[sp].d([m5C])[sp].[moe]([m5C])p.[moe]([m5C])[sp].[moe](A)}$$$$ (last 3' nucleoside missing)”, which 3 h FOB score is on record?
**A.** 0.25 score 0-7

**Q.** How did the 3 h FOB score turn out when “RNA1{[moe](T)[sp].[moe](G)p.[moe](T)p.[moe](T)p.[moe](A)p.d(A)[sp].d(T)[sp].d(A)[sp].d([m5C])[sp].d(T)[sp].d(T)[sp].d(T)[sp].d(T)[sp].d(T)[sp].d([m5C])[sp].[moe]([m5C])p.[moe](A)p.[moe](G)[sp].[moe]([m5C])}$$$$ (last 3' nucleoside missing)” was run?
**A.** 1 score 0-7
